For data set [1] the following is noted: clinical phase I trial, combined with dexamethasone, RRMM patients; cited from earlier work.
Data set [2] addresses T1, CRBN (Homo sapiens, UniProt Q96SW2).
T1 construct: purchased Cisbio 64BDCRBNPEG
Description: CRBN binding assay (HTRF competition). The text has this: Bonding activity between CRBN and compounds were detected by the HTRF competition assay using a CRBN binding kit (Cisbio, 64BDCRBNPEG). First, a reagent in the kit was equilibrated to room temperature and diluted to 1 fold with double-distilled water, and both the reagent and samples were uniformly mixed by thorough vortexing for later use. An europium-labeled specific GST antibody and an XL665-labeled thalidomide-red reagent (Cisbio, Cat No. 64BDCRBNPEG) were mixed in equal volumes in advance and then added into a 384-well white microplate at 10 μL per well. […] After uniform mixing, contents in the 384-well plate were sealed and incubated in the dark at room temperature for 3 hours.

Data set [3] deals with T2, IKZF3 (Homo sapiens, UniProt Q96SW2+Q9UKT9).
T2 construct: endogenous in cells; host or cells: NCI-H929
Description: Protein degradation assay (In-Cell Western), IKZF3. The class given is cell-based. The settings on record: NCI-H929 cells, 24 hours. The procedure: (§1) NCI-H929 cells were inoculated into a 96-well plate at 100,000 cells per well and cultured overnight. Compounds at concentrations of 1600 nM, 400 nM, 100 nM, 25 nM, 6.25 nM, 1.56 nM, 0.39 nM, and 0.1 nM were dosed with duplicate wells, and the cells were incubated in an incubator at 37° C. for 24 hours. After the incubation, the supernatant was removed by centrifugation, and 150 μL of 4% paraformaldehyde was added. The cells were incubated at room temperature for 20 minutes, then, 200 μL of a washing solution (0.1% TritonX-100, Beyotime; ST1722) was added and incubated at room temperature on a shaker. After repeating the washing four times, 150 μL of a Licor INTERCEPT blocking solution (Lico, Cat No. 927-70001) was added, and the cells were incubated on a shaker at room temperature for 1.5 hours. Antibodies IKZF1 (Cell Signaling; Cat No. 14859S), IKZF3 (Cell Signaling; Cat No. 15103S), GSPT1 (Proteintech, Cat No. 10763-1-AP), CK1a (Thermo; 7117067), and SALL4 (Abcam, ab22675) were diluted with an antibody dilution solution (Intercept Blocking Buffer, LI-COR, 211114) at 1:100 and 50 μL of each diluted primary antibody was added into the 96-well plate. The cells were incubated overnight on a shaker at 4° C. After the primary antibodies were removed and repeated washing was performed with PBST for 4 times, 50 μL of a diluted secondary antibody (Licor, Cat No. 926-68070) was added, and IRDye 800CW and IRDye 680CW were added at 0.5 μL simultaneously. The secondary antibody was sucked away, PBST was added, repeated washing was performed on a shaker at room temperature for 4 times, and a signal intensity was detected using an infrared laser imaging system (Lico, Odyssey-CLx).

Data set [4] deals with T3, IKZF1 (Homo sapiens, UniProt Q13422+Q96SW2).
T3 construct: NCI-H929 cells were inoculated into a 96-well plate at 100,000 cells per well and cultured overnight; endogenous in cells; host or cells: NCI-H929
As to the kind of experiment: Protein degradation assay (In-Cell Western), IKZF1. The format is cell-based. The note with it: NCI-H929 cells, 24 hours. Here is the method: as §1

Data set [5] concerns NCI-H929 multiple myeloma cells. Description: Cell Titer-GLO (CTG) assay for proliferation of NCI-H929 cells. The class given is cell-based. The note with it: Homo sapiens, 72 hours. The gist of the method:
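NCI-H929 cells, 5000/well, treated next day with compound from 0.00512 to 400 nM (5-fold steps, duplicates) for 72 h at 37° C. Viability by CellTiter-Glo luminescence, normalised to 0.1% DMSO and medium blank; IC50 and maximal inhibition from nonlinear dose-response regression.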
(In ATP-based viability assays light output follows the ATP content of the culture.)

For data set [6] the following is noted: patients, literature; cited from earlier work.
Setting [7] is: GST-labeled CRBN WT protein, thalidomide-red competition, 3 hours, read-out: HTRF CRBN IC50.

Where two headings read alike, the source gives them in different places.

As a reminder, the IC50 is the concentration at which inhibition is half-maximal. In the case of `N#Cc1ccc(N2CCN(Cc3ccc(COc4cccc5c4CN([C@H]4CCC(=O)NC4=O)C5=O)cc3)CC2)c(F)c1` [CC-92480, reference compound], in data set [1], the “objective response rate (ORR)” value was 54.4%. The molecule further registered an IC50 in data set [2] of 108000 pM.

A word on the DC50: it is the concentration giving 50% degradation. As a reminder, the Dmax is the greatest extent of degradation seen. A high value points to a fuller loss of target. In the case of `O=C1CC[C@H](N2Cc3c(OCc4ccc(CN5CCN(c6ccnc(-n7ccnc7)n6)CC5)cc4)cccc3C2=O)C(=O)N1` [Example 1, (S)-3-(4-((4-((4-(2-(1H-imidazol-1-yl)pyrimidin-4-yl)piperazin-1-yl)methyl)benzyl)oxy)-1-oxoisoindolin-2-yl)piperidin-2,6-dione], the half-maximal degradation concentration (DC50) in data set [3] worked out at 120 pM; in data set [4] it was 310 pM. Moreover, the Dmax came out at 71.4% in data set [3] and 75.8% in data set [4]. The molecule further registered an IC50 in data set [5] of 30 pM.

As to `O=C1CCC(N2C(=O)c3cccc4c(Cc5ccc(CN6CCN(c7ccnc(-n8ccnc8)n7)CC6)cc5)ccc2c34)C(=O)N1` (stereo not shown) [Example 3, 3-(6-(4-((4-(2-(1H-imidazol-1-yl)pyrimidin-4-yl)piperazin-1-yl)methyl)benzyl)-2-oxobenzo[cd]indol-1(2H)-yl)piperidin-2,6-dione], in data set [3], the DC50 is 50 pM and the Dmax worked out at 76.6%. In data set [4], this molecule registered a DC50 of 81 pM and a Dmax of 73.6%. Moreover, the IC50 in data set [5] was found to be 3 pM.

In the case of `O=C1CCC(N2C(=O)c3cccc4c(Cc5ccc(CN6CCN(C(=O)c7cccc(-n8ccnc8)n7)CC6)cc5)ccc2c34)C(=O)N1` (stereo not shown) [Example 4, 3-(6-(4-((4-(6-(1H-imidazol-1-yl)pyridin-2-carbonyl)piperazin-1-yl)methyl)benzyl)-2-oxobenzo[cd]indol-1(2H)-yl)piperidin-2,6-dione], in data set [3], half-maximal degradation (DC50) was put at 190 pM and the Dmax came to 70.3%. Also, in data set [4], it took 380 pM to reach half-maximal degradation (DC50) and the Dmax amounted to 73.6%. In data set [5], this molecule returned an IC50 of 30 pM.

As to `O=C1CCC(N2C(=O)c3cccc4c(Cc5ccc(CN6CCN(C(=O)c7ccnc(-n8ccnc8)n7)CC6)cc5)ccc2c34)C(=O)N1` (stereo not shown) [Example 5, 3-(6-(4-((4-(2-(1H-imidazol-1-yl)pyrimidin-4-carbonyl)piperazin-1-yl)methyl)benzyl)-2-oxobenzo[cd]indol-1(2H)-yl)piperidin-2,6-dione], in data set [3], the DC50 came out at 120 pM and the Dmax came to 73.8%. In addition, in data set [4], it took 230 pM to reach half-maximal degradation (DC50) and the Dmax was found to be 68.4%. Moreover, the IC50 in data set [5] worked out at 60 pM.

Take `Cc1ncc(-c2nc(N3CCN(Cc4ccc(Cc5ccc6c7c(cccc57)C(=O)N6C5CCC(=O)NC5=O)cc4)CC3)cc(C(F)(F)F)n2)s1` (stereo not shown) [Example 21, 3-(6-(4-((4-(2-(2-methylthiazol-5-yl)-6-(trifluoromethyl)pyrimidin-4-yl)piperazin-1-yl)methyl)benzyl)-2-oxobenzo[cd]indol-1(2H)-yl)piperidin-2,6-dione]: the results for the DC50 in data set [3] and in data set [4] were 220 pM and 8860 pM, respectively. Besides, the values for the Dmax in data set [3] and in data set [4] were 74.1% and 57.1%, respectively. The IC50 in data set [5] came to 200 pM; in data set [2] (setting [7]), 34000 pM.

As for `Cc1nnc(-c2cccc(N3CCN(Cc4ccc(Cc5ccc6c7c(cccc57)C(=O)N6C5CCC(=O)NC5=O)cc4)CC3)n2)s1` (stereo not shown) [Example 22, 3-(6-(4-((4-(6-(5-methyl-1,3,4-thiadiazol-2-yl)pyridin-2-yl)piperazin-1-vA)methyl)benzyl)-2-oxobenzo[cd]indol-1(2H)-yl)piperidin-2,6-dione], the DC50 worked out at 56 pM in data set [3] and 100 pM in data set [4]. For the same molecule, the values for the Dmax in data set [3] and in data set [4] were 76.4% and 65.3%, respectively. The results for the concentration for half-maximal inhibition (IC50) in data set [5] and in data set [2] (setting [7]) were 20 pM and 20000 pM, respectively.

Consider `Cc1ncn(-c2cccc(N3CCN(Cc4ccc(Cc5ccc6c7c(cccc57)C(=O)N6C5CCC(=O)NC5=O)cc4)CC3)n2)n1` (stereo not shown) [Example 23, 3-(6-(4-((4-(6-(3-methyl-1H-1,2,4-triazol-1-yl)pyridin-2-yl)piperazin-1-yl)methyl)benzyl)-2-oxobenzo[cd]indol-1(2H)-yl)piperidin-2,6-dione], for which the values for the DC50 in data set [3] and in data set [4] were 36 pM and 77 pM, respectively. Besides, the figures for the Dmax in data set [3] and in data set [4] were 77.1% and 65.8%, respectively. Further, the IC50 in data set [5] was found to be 10 pM; in data set [2] (setting [7]), 19000 pM.

For `O=C1CCC(N2C(=O)c3cccc4c(Cc5ccc(CN6CCN(c7ccnc(-n8cnc(C(F)(F)F)c8)n7)CC6)cc5)ccc2c34)C(=O)N1` (stereo not shown) [Example 25, 3-(2-oxo-6-(4-((4-(2-(4-(trifluoromethyl)-1H-imidazol-1-yl)pyrimidin-4-yl)piperazin-1-yl)methyl)benzyl)benzo[cd]indol-1(2H)-yl)piperidin-2,6-dione], the results for the DC50 in data set [3] and in data set [4] were 75 pM and 980 pM, respectively. In addition, the greatest degradation seen (Dmax) in data set [3] came out at 76.2%; in data set [4], 60%. The IC50 is 40 pM in data set [5] and 38000 pM in data set [2] (setting [7]).

As for `Cc1nc(N2CCN(Cc3ccc(Cc4ccc5c6c(cccc46)C(=O)N5[C@H]4CCC(=O)NC4=O)cc3)CC2)cc(-n2cnc(C(F)(F)F)c2)n1` [Example 30, (S)-3-(6-(4-((4-(2-methyl-6-(4-(trifluoromethyl)-1H-imidazol-1-yl)pyrimidin-4-yl)piperazin-1-yl)methyl)benzyl)-2-oxobenzo[cd]indol-1(2H)-yl)piperidin-2,6-dione], the DC50 in data set [3] worked out at 93 pM; in data set [4], 370 pM. Moreover, the figures for the Dmax in data set [3] and in data set [4] were 73.2% and 74.1%, respectively. Further, the IC50 in data set [5] is 10 pM; in data set [2] (setting [7]), 27000 pM.

`Cc1nc(N2CCN(Cc3ccc(Cc4ccc5c6c(cccc46)C(=O)N5[C@@H]4CCC(=O)NC4=O)cc3)CC2)cc(-n2cnc(C(F)(F)F)c2)n1` [Example 31, (R)-3-(6-(4-((4-(2-methyl-6-(4-(trifluoromethyl)-1H-imidazol-1-yl)pyrimidin-4-yl)piperazin-1-yl)methyl)benzyl)-2-oxobenzo[cd]indol-1(2H)-yl)piperidin-2,6-dione]: the DC50 in data set [3] worked out at 160 pM; in data set [4], 340 pM. Also, the Dmax was 75% in data set [3] and 77% in data set [4]. For the same molecule, it took 10 pM to reach half-maximal inhibition in data set [5] (IC50).

With `Cc1ncn(-c2cccc(N3CCN(Cc4ccc(Cc5ccc6c7c(cccc57)C(=O)N6[C@H]5CCC(=O)NC5=O)cc4)CC3)n2)n1` [Example 37, (S)-3-(6-(4-((4-(6-(3-methyl-1H-1,2,4-triazol-1-yl)pyridin-2-yl)piperazin-1-yl)methyl)benzyl)-2-oxobenzo[cd]indol-1(2H)-yl)piperidin-2,6-dione], the IC50 turned out to be 10 pM in data set [5] and 8000 pM in data set [2] (setting [7]).

Turning to `Nc1cccc2c1CN(C1CCC(=O)NC1=O)C2=O` (stereo not shown) [lenalidomide], in data set [6], the “incidence rate of G3/G4 neutropenia” value is reported as “up to 35%”.

As for `Nc1cccc2c1C(=O)N(C1CCC(=O)NC1=O)C2=O` (stereo not shown) [pomalidomide], the “incidence rate of G3/G4 neutropenia” value in data set [6] was “approximately 50%”.

Source of the values: patent US20260272924A1, “ISOINDOLINE DERIVATIVE, BENZOINDOLE DERIVATIVE AND USE THEREOF” (SHANGHAI HELIOSON PHARMACEUTICAL CO., LTD., priority 2023, published 2026).
